The results in this text go back to patent US20210254272A1, “TEXTILES HAVING ANTIMICROBIAL PROPERTIES” (Livinguard AG, priority 2015, published 2021).

A short description of the series: Leaching: 10 grams fabric in 100 milliliters distilled water, 7 days, GC-MS. Format: physicochemical. The protocol:
To test for a potential leaching of the antimicrobial agents fixed to the textile material, the following test was performed. A test fabric of polyester 65%/cotton 35% with 210 g/m2 was treated with polyhexamethylenebiguanide (PHMB) 0.5%, silver chloride 0.075%, octadecylaminomethyl trihydroxysilylpropyl ammonium chloride (organosilane) 0.4%, and propiconazole 0.5%
The treated textile material was put into distilled water at a ratio of 1:10. Specifically, a fabric of 10 grams was soaked in 100 milliliters of distilled water. The fabric was incubated in the water for 7 days at room temperature, i.e. between 21 and 25° C.
Following said incubation time, the fabric was removed from the water and the exposed water was tested for the presence of the above five active ingredients using gas chromatography-mass spectrometry (GC-MS).

For `[Cl][Ag]` [Silver chloride], the “Extracted water Conc, ppm” value was “BDL (BDL-below detection limit Detection limit: 1 parts per million (ppm))”.
